In BindingDB's records for doi:10.1021/acs.jnatprod.8b00318 (Indian Institute of Integrative Medicine (Csir), 2019):

Tests used:
[1] = target: Prostaglandin G/H synthase 1 (Ovis aries) (UniProt P05979); test: Inhibition of ovine COX1 assessed as reduction in prostaglandin E2 production incubated for 10 mins before arachidonic acid addition and measured after 25 mins by LC-MS/MS analysis
[2] = target: Prostaglandin G/H synthase 2 (Homo sapiens) (UniProt P35354); test: Inhibition of COX2 (unknown origin) assessed as reduction in prostaglandin E2 production incubated for 10 mins before arachidonic acid addition and measured after 25 mins by LC-MS/MS analysis
Prostaglandin G/H synthase 2 (Homo sapiens), sequence (P35354 whole entry, looked up): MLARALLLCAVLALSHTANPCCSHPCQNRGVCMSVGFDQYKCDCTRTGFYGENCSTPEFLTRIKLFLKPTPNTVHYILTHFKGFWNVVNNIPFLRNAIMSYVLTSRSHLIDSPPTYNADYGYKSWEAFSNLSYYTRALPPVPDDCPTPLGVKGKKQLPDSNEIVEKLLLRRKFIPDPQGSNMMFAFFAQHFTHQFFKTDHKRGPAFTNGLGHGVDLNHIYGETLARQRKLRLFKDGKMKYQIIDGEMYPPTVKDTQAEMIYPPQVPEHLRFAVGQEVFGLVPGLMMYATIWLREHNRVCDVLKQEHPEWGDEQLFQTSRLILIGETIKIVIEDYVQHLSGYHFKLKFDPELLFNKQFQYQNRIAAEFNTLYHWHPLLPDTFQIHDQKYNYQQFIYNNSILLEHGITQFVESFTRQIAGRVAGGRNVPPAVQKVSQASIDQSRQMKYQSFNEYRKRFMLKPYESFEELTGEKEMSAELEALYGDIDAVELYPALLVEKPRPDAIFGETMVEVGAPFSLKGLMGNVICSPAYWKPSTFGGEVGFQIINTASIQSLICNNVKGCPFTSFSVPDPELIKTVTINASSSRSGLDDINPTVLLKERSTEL

Q: Which results are given for `COC(=O)[C@@H](C)c1ccc2c(C)cc(O)c(C)c2c1`?
A: IC50 [1]: 31 µM; IC50 [2]: 66.1 µM
